The subject of series [1] is U87 cells intracerebral xenograft. In words: Orthotopic U87 xenograft model of GBM. It counts as in vivo, CD1 nude mice. As to conditions: 50 mg/kg i.p., three times per week for three weeks, observed two months. Here is the method: In CD1 nude mice, 3 × 10^3 U87 cells were injecting intracerebrally using a stereotactic frame (Stoelting Europe, Dublin, Ireland). Optimization of the protocol for treatment procedures was based on previously published data performed in the same experimental in vivo model. A volume of 3 μL was inoculated by a sterile Hamilton syringe with a 26-gauge needle inserted at a depth of 3.0 mm from the skull surface. Five days after injection, animals were randomized to control and treated groups. […] For in vivo administration, BA103 was administered i.p. in a saline solution containing 10% v/v DMSO and 10% v/v TWEEN 80. Each mouse received 50 mg/kg BA103, or vehicle, three times per week.
Figure 9 Biological activity of BA103 in xenograft models of GBM. (A–D) Mice were inoculated s.c. with U87 cells, randomly distributed in two groups (CTR and BA103), and treated according to the protocol shown in panel (A). Tumor growth was monitored by measuring tumor volume (B), and at the end point, tumors were weighed, and the resulting mean values for each group are reported in the histogram (C). Recovered tumor masses were processed for analysis of DDX3X expression by immunohistochemistry, and representative images acquired at 400× magnification are shown in panel (D). (E) Survival curve from in vivo orthotopic model of GBM. […] Mice were monitored for two months after U87 cells inoculation. […]

Another series relates to U87 cells xenograft. In words: Subcutaneous U87 xenograft model of GBM. It counts as in vivo, CD1 nude mice. As to conditions: 50 mg/kg i.p. Here is the method:
Male CD1 nude mice (Charles River, Milan, Italy) were maintained under the guidelines established by our Institution (University of L’Aquila), complying with the Declaration of Helsinki, national and international laws and policies (European Economic Community Council Directive 86/609; Italian Legislative Decree 4.03.2014 n.26, Gazzetta Ufficiale della Repubblica Italiana no. 61, 4 March 2014). Before any invasive manipulation, mice were anesthetized with a mixture of ketamine (25 mg/mL)/xylazine (5 mg/mL). Tumor grafts were obtained by injecting s.c. 1 × 10^6 U87 cells in 100 µL of 12 mg/mL Matrigel (Becton Dickinson, Franklin Lakes, NJ, USA). Tumor growth was monitored daily by measuring the average tumor diameter, and mice were divided into experimental groups when the tumor reached a volume of approximately 50 mm^3. The tumor volume was calculated according to the formula 4/3πr^3, with r representing the […]. BA103 was administered i.p. in a saline solution containing 10% v/v DMSO and 10% v/v TWEEN 80. Each mouse received 50 mg/kg BA103, or vehicle, three times per week. Previous experiments with the same settings have permitted choosing the endpoint of 21 days considering the maximum mean volume of tumors in control mice that was compatible with no signs of distress. […]
Next, we tested our compound on U87 cells in a xenograft model of GBM. […] During the experiment, tumor growth was monitored measuring tumor volume, and at the end point, 21 days after the start point, mice were euthanized, and tumors were recovered and measured. […] Tumor masses were also analyzed for the expression of DDX3X, and all xenografts resulted positive for DDX3X expression, from both control and treated groups, with a spotted staining pattern (Figure 9D).
Figure 9 Biological activity of BA103 in xenograft models of GBM. […] Tumor growth was monitored by measuring tumor volume (B), and at the end point, tumors were weighed, and the resulting mean values for each group are reported in the histogram (C). […] Mice were monitored for two months after U87 cells inoculation.

The subject of the next series is DU-145. Description: MTS cytotoxicity assay, DU-145 cells. It counts as cell-based. Conditions: DU-145, 72 h. As to the method:
For CellTiter 96® Aqueous One Solution Cell Proliferation Assay (MTS) (Promega, Madison, WI, USA), cells were seeded at 5 × 10^3 per well in 96-well plates in quadruplicate together a control with no cells to evaluate the background. After 24 h, the culture medium was removed, and fresh medium containing increasing concentrations of chemical compounds was added to cells. The fixed final concentrations were 0.1 μM, 1 μM, 10 μM, and 100 μM. DMSO was the vehicle used for dilution of the compounds, and its final concentration on cells was less than 0.2%. Medium-only containing wells were included as controls. […] After 3 h at 37 °C in a humidified, 5% CO2 atmosphere, the absorbance at 492 nm was recorded using an EZREAD400 (Biochrom, Cambridge, United Kingdom) plate reader. The average 490 nm absorbance from the “no cell” control wells was subtracted from all other values to yield background-corrected absorbance. Dose–response curves and CC50 values have been calculated by plotting the absorbance data as a function of inhibitor concentrations and fitting the data by least-squares nonlinear regression, according to the method of Marquardt–Levenberg, with the computer program GraphPad Prism 6.0.
Cells were incubated with a scalar concentration of DDX3X inhibitors, and after 72 h of treatment, cell viability was assessed by cytotoxicity assay. […]

This is an account of results in publication PMC8582824, “Targeting DDX3X Helicase Activity with BA103 Shows Promising Therapeutic Effects in Preclinical Glioblastoma Models” (Cancers, 2021).

Molecules are shown by their SMILES.

`CCCCc1cn(-c2ccc(NC(=O)Nc3ccccc3C(F)(F)F)cc2)nn1` [BA103, 1-(4-(4-Butyl-1H-1,2,3-triazol-1-yl)phenyl)-3-(2-(trifluoromethyl)phenyl)urea]: the “mice alive at the endpoint” value in series [1] was “seven out of eight”. In addition, the “tumor growth (tumor volume) vs control” value in the series on U87 cells xenograft (from the second week) was “reduction in tumor growth was evident”. Further, the “reduction of mean tumor mass with respect to control group” value with U87 cells xenograft (three times per week for two weeks, end point 21 days) is ~60%. The “signs of distress in the receiving animal” value in the series on U87 cells xenograft (two consecutive weeks) is given as “absence of any visible sign of distress”. Further, in the series on DU-145, the “CC50” value is listed as “low micromolar range”.
